Experimental data from patent US20250059232A1, “PENTAPEPTIDE AND USE THEREOF” (ENSOL BIOSCIENCES INC., priority 2021, published 2025).

Legend:
PC3 = PC3 cell viability (CCK-8) in NK92 co-culture with anti-PD-1; type: cell-based, human; details: 100 or 300 uM with 10 μg/ml anti-PD-1, 48/72 hours, P<0.05
Method: The experiment described below was performed to evaluate the tumor cell proliferation inhibitory effect of the combination treatment of the peptide of Example 1 and anti-PD-1, which is another immune checkpoint inhibitor. First, 5×10^3 cells of a human prostate cancer cell line PC3 were seeded in 96 wells and stabilized by culturing overnight. Next, 5×10^3 NK92 cells were additionally seeded, and the test cells were treated with 10 μg/ml of the anti-PD-1 and 100 or 300 uM of the peptide of Example 1 for each condition. After 48/72 hours of co-culturing, the NK92 cells were removed by washing, and the cell viability of the PC3 cells was measured by CCK-8 addition. FIG. 18 is a graph illustrating changes in PC3 cell viability over culturing time for each test group in an anticancer effect evaluation test. In FIG. 18, the x-axis represents culturing time and the y-axis represents cell viability (%).

A549 = A549 cell viability (CCK-8) in NK92 co-culture with anti-PD-L1; type: cell-based, human; details: 300 uM with 10 ug/ml anti-PD-L1, 24/48 hours of co-culturing
Method: The experiment described below was performed to evaluate the tumor cell proliferation inhibitory effect of the combination treatment of the peptide of Example 1 and the anti-PD-L1, which is an immune checkpoint inhibitor. First, 5×10^3 cells of a human prostate cancer cell line PC3, 5×10^3 cells of a human lung cancer cell line A549 (Korean Cell Line Bank), and 1×10^4 cells of a human triple negative breast cancer cell line MDA-MB-231 (ATCC) were seeded in 96 wells and stabilized by culturing overnight. Then, the seeded cells were treated with 10 ug/ml of the anti-PD-L1 and 300 uM of the peptide of Example 1, for each condition while NK92 cells for 5×10^3 cells of each of the PC3 cell line and the MDA-MB-231 cell line and 2.5×10^3 cells of the A549 cell line were additionally seeded. After 24/48/72 hours of co-culturing (for PC3 and MDA-MB-231) and 24/48 hours of co-culturing (for A549), the NK92 cells were removed by washing, and the cancer cell viability was measured by CCK-8 addition. FIG. 15 is a graph illustrating the changes in PC3 cell viability over culturing time for each test group in an anticancer effect evaluation test. In FIG. 15, the x-axis represents culturing time and the y-axis represents cell viability (%). FIG. 16 is a graph illustrating the changes in A549 cell viability over culturing time for each test group in an anticancer effect evaluation test. […]

[1] = system: PC3 cells co-cultured with NK92 cells; test: PC3/NK92 co-culture: Western blot of LC3II and cleaved PARP; type: cell-based, human; details: 300 uM with 10 μg/ml anti-PD-L1
Method: In addition, the expression of LC3II, which is an autophagy marker, and the expression of cleaved PARP, which is a cell death marker, were determined by a Western blot test. 1×10^6 PC3 cells were seeded in 6 wells and stabilized by culturing overnight, and the PC3 cells were treated with 10 μg/ml of the anti-PD-L1 and 300 uM of the peptide of Example 1 for each condition while the same number of NK92 cells were additionally seeded. After a predetermined period of treatment, the NK92 cells were removed by washing, and proteins were isolated from the tumor cells to determine LC3II (12 h) and PARP (24 h) expression changes. The expression amounts of each marker were calculated as proportions relative to the control. FIG. 13 is a graph showing the amount of cleaved PARP expression compared to PARP for each test group in the anticancer effect evaluation test in which the x-axis represents test groups and the y-axis represents the amount (%) of cleaved PARP expression compared to the PARP. FIG. 14 is a graph showing the amount of LC3II expression compared to actin for each test group in an anticancer effect evaluation test, in which the x-axis represents test groups, and the y-axis represents the amount (%) of LC3II expression compared to actin in the test group.

EL4 = EL4 cell viability (CCK-8) with doxorubicin; type: cell-based, mouse; details: 300 uM with doxorubicin 20 nM; 24 hours; p<0.05
Method: In order to investigate the cell viability by the combined administration of doxorubicin and the peptide of Example 1 compared to the group administered with only doxorubicin, which is an anticancer chemotherapeutic agent, experiments described below were conducted. 8×10^3 Cells of the mouse lymphoma cell line EL4 (ATCC) were seeded in 96 wells, which then were treated with doxorubicin 20 nM and peptide 300 uM of Example 1 for each condition. After 24 hours of culturing, the cell viability of the EL4 cells was measured by CCK-8 addition. FIG. 11 is a graph illustrating the changes in EL4 cell viability over culturing time in an anticancer effect evaluation test. In FIG. 11, the x-axis represents culturing time and the y-axis represents cell viability (%).

4T1 cells = test: Syngeneic model implanted with paclitaxel-resistant 4T1 cells: tumor volume, Western blot of cleaved PARP and LC3II; type: in vivo, mouse; details: for Reduction in tumor volume compared to the group administered with only paclitaxel: Balb/c mice, 3 weeks; for Increase in cleaved PARP expression level in tumor compared to paclitaxel-only group / Reduction in LC3II expression level in tumor compared to paclitaxel-only group: Western blot after 3-week administration
Method: Cell death and autophagy marker changes were determined by the Western blot method, using a syngeneic model implanted with 4T1 cells (American Type Culture Collection (ATCC)), which are mouse triple negative breast cancer tumor cells resistant to paclitaxel. The drug administration was started, when the tumor volume was reached to 70 mm^3 after a fat pad of Balb/c mice (6 weeks old, female) was transplanted with 4T1 cells in a concentration of 1×10^6 cells/head. For Week 1, paclitaxel 20 mg/kg was administered on Day 1 and Day 2, and the peptide (10, 100 mg/kg) of Example 1 was co-administered on Day 3, Day 5, and Day 7. In addition, the same process was performed for each of Week 2, and Week 3 (n=3). The tumor volumes were measured daily because the tumors grew very quickly. The changes in cleaved PARP, which is a cell death marker, and the changes in LC3II, which is an autophagy marker, in tumors were analyzed after necropsy on the day after the end of the 3-week administration, by a Western blot test.
FIG. 5 is a graph illustrating the results of tumor volume measurements according to the number of days after treatment in animal experimentation. In FIG. 5, the x-axis represents the number of days elapsed after treatment and the y-axis represents the tumor volume change (mm^3).
In addition, the changes in cleaved PARP, which is a cell death marker, are shown in FIG. 6, and the changes in LC3II, which is an autophagy marker, are shown in FIG. 7. FIG. 6 is a graph showing the changes in expression of cleaved PARP, which is a cell death marker, for each treatment group in animal experimentation, and FIG. 7 is a graph showing the changes in expression of LC3II, which is an autophagy marker, for each treatment group in animal experimentation.

[2] = 10 mg/kg co-administered with paclitaxel
[3] = 100 mg/kg co-administered with paclitaxel, p<0.05

For Ac-QLHLD-OH [Example 1, acetyl-QLHLD], the “Cancer cell viability compared to the checkpoint-inhibitor-only group” value (PC3) was “significant decrease”, the “Cancer cell viability compared to the group treated with only anti-PD-L1” value (A549) was “significant decrease in cancer cell viability” and the “LC3II expression compared to the group treated with only anti-PD-L1” value ([1]; 12 h, P<0.001) was “significantly decreased”. For the same substance, the “Cleaved PARP expression compared to the group treated with only anti-PD-L1” value ([1]; 24 h, P<0.05) was “significantly increased”, the “Cancer cell viability compared to the group treated with only doxorubicin” value (EL4) was “significant decrease in cancer cell viability” and the “Reduction in tumor volume compared to the group administered with only paclitaxel” value (4T1 cells; 10 mg/kg co-administered with paclitaxel 20 mg/kg) was 20%. For the same substance, the “Increase in cleaved PARP expression level in tumor compared to paclitaxel-only group” value (4T1 cells; [2]) was 2 fold, the “Reduction in LC3II expression level in tumor compared to paclitaxel-only group” value (4T1 cells; [2]) was 38% and the “Reduction in tumor volume compared to the group administered with only paclitaxel” value (4T1 cells; 100 mg/kg co-administered with paclitaxel 20 mg/kg) was 40%. The “Increase in cleaved PARP expression level in tumor compared to paclitaxel-only group” value (4T1 cells; [3]) was 3 fold and the “Reduction in LC3II expression level in tumor compared to paclitaxel-only group” value (4T1 cells; [3]) was 86%.
